Consider 16 compounds from patent publication US20250320213A1, “Nitrogen-Containing Heterocyclic Compounds” (Pfizer Inc., priority 2024, published 2025).

Test [1] concerns the target T1, STAT6 (Homo sapiens, UniProt P42226).
T1 construct: stably transfected HaCaT keratinocyte cell line, which expresses NanoLuc luciferase reporter gene under the transcriptional control of the STAT6 responsive promoter; endogenous in cells; host or cells: HaCaT keratinocyte reporter cell line (stably transfected with a NanoLuc reporter)
T1 sequence (P42226 1-847): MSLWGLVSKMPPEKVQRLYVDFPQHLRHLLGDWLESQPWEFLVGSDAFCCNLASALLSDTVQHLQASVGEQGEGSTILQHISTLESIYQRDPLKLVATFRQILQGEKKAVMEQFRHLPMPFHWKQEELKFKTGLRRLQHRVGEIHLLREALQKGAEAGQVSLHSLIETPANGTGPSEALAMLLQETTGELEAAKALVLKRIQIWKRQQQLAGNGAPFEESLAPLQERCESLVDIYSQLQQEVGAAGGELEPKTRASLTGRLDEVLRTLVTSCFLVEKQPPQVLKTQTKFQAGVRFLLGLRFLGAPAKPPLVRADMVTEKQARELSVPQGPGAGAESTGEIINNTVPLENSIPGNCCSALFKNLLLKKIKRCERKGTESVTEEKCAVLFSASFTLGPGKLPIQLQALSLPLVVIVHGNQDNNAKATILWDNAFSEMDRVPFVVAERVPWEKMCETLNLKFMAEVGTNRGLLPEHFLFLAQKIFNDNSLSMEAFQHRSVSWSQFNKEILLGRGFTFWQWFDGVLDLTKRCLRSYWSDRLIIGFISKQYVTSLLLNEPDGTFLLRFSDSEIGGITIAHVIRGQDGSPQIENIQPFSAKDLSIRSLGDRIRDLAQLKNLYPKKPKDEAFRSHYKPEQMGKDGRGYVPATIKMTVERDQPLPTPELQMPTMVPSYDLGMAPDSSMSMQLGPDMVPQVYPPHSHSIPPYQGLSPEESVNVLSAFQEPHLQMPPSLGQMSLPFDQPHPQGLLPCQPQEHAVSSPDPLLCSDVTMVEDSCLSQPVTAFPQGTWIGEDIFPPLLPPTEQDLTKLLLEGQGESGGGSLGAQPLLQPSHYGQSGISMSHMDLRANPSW
Briefly: STAT6 Reporter Luciferase Assay (IL-13 stimulated HaCaT keratinocyte NanoLuc reporter cells). It is filed as cell-based. The note with it: IL-13 stimulated HaCaT STAT6 NanoLuc reporter cells; read-out: Reporter EC50. The method, boiled down:
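HaCaT cells stably carrying a NanoLuc reporter driven by the STAT6-responsive IL-13Ra2 promoter were preincubated with compounds for 2 h at 37 °C in 2% FBS medium. Cells were then stimulated with 0.12 nM IL-13 for 4 h, and luminescence was read after Nano-Glo substrate. Compounds ran as 11-point 4-fold dilutions in duplicate.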

Test [2] deals with CCL17 secretion in peripheral human whole blood. Nature of the test: Human Whole Blood (HWB) CCL17 TR-FRET Assay (IL-13 stimulated CCL17 secretion). Type of test: cell-based. The note with it: Homo sapiens, 48 h, human whole blood, 10 ng/mL IL13, 48 hours. The method, boiled down: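 IC50 values reflect inhibition of IL-13-driven CCL17 release in human whole blood. Blood was preincubated with compound 2 h, stimulated 48 h at 37 °C with IL-13 (10 ng/mL final), and serum CCL17 was measured by TR-FRET.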
(In TR-FRET formats the signal depends on donor and acceptor labels being close together.)

Turning to `CN[C@H]1CCCN(C(=O)Nc2ccc(CNC(=O)c3nn(C(C)C)c4c3CN(c3ccc(C(=O)N(C)C)cc3)C[C@@H]4C)cc2F)C1` [Example 569, (S)-5-(4-(dimethylcarbamoyl)phenyl)-N-(3-fluoro-4-((S)-3-(methylamino)piperidine-1-carboxamido)benzyl)-1-isopropyl-7-methyl-4,5,6,7-tetrahydro-1H-pyrazolo[4,3-c]pyridine-3-carboxamide], the EC50 in test [1] was 4 nM. For the same compound, in test [2], 20 nM corresponded to half-maximal inhibition (IC50).

On to `CC(C)n1nc(C(=O)NCc2ccc(NC(=O)N3CC[C@](C)(N)C3)cc2)c2c1[C@@H](C)CN(c1ccc(C(=O)N(C)C)cc1)C2` [Example 570, (S)-N-(4-((S)-3-amino-3-methylpyrrolidine-1-carboxamido)benzyl)-5-(4-(dimethylcarbamoyl)phenyl)-1-isopropyl-7-methyl-4,5,6,7-tetrahydro-1H-pyrazolo[4,3-c]pyridine-3-carboxamide], for which the EC50 in test [1] worked out at 3 nM. The compound further displayed an IC50 in test [2] of 27 nM.

For `CN[C@H]1CCN(C(=O)Nc2ccc(CNC(=O)c3nn(C(C)C)c4c3CN(c3ccc(C(=O)N(C)C)cc3)C[C@@H]4C)cc2)C1` [Example 571, (S)-5-(4-(dimethylcarbamoyl)phenyl)-1-isopropyl-7-methyl-N-(4-((S)-3-(methylamino)pyrrolidine-1-carboxamido)benzyl)-4,5,6,7-tetrahydro-1H-pyrazolo[4,3-c]pyridine-3-carboxamide], the EC50 in test [1] was determined as 4 nM. For the same compound, half-maximal inhibition in test [2] (IC50) was put at 20 nM.

On to `CC(C)n1nc(C(=O)NCc2ccc(NC(=O)N3CC[C@@](C)(N)C3)cc2)c2c1[C@@H](C)CN(c1ccc(C(=O)N(C)C)cc1)C2` [Example 572, (S)-N-(4-((R)-3-amino-3-methylpyrrolidine-1-carboxamido)benzyl)-5-(4-(dimethylcarbamoyl)phenyl)-1-isopropyl-7-methyl-4,5,6,7-tetrahydro-1H-pyrazolo[4,3-c]pyridine-3-carboxamide], for which the EC50 in test [1] amounted to 3 nM. In test [2], this compound gave an IC50 of 20 nM.

`CC(C)n1nc(C(=O)NCc2ccc(NC(=O)N3CCN4CCC[C@@H]4C3)cc2)c2c1[C@@H](C)CN(c1ccc(C(=O)N(C)C)cc1)C2` [Example 574, (S)-5-(4-(dimethylcarbamoyl)phenyl)-1-isopropyl-7-methyl-N-(4-((R)-octahydropyrrolo[1,2-a]pyrazine-2-carboxamido)benzyl)-4,5,6,7-tetrahydro-1H-pyrazolo[4,3-c]pyridine-3-carboxamide]: the EC50 in test [1] was determined as 0.5 nM. In test [2], this compound came in with an IC50 of 11 nM.

With `CC(C)n1nc(C(=O)NCc2ccc(NC(=O)N3CCN4CCC[C@H]4C3)cc2)c2c1[C@@H](C)CN(c1ccc(C(=O)N(C)C)cc1)C2` [Example 575, (S)-5-(4-(dimethylcarbamoyl)phenyl)-1-isopropyl-7-methyl-N-(4-((S)-octahydropyrrolo[1,2-a]pyrazine-2-carboxamido)benzyl)-4,5,6,7-tetrahydro-1H-pyrazolo[4,3-c]pyridine-3-carboxamide], the EC50 in test [1] was found to be 1 nM. Further, the IC50 in test [2] is 10 nM.

Take `CC(C)n1nc(C(=O)NCc2ccc(NC(=O)N3CCCNCC3)c(F)c2)c2c1[C@@H](C)CN(c1ccc(C(=O)N(C)C)cc1)C2` [Example 576, (S)-N-(4-(1,4-diazepane-1-carboxamido)-3-fluorobenzyl)-5-(4-(dimethylcarbamoyl)phenyl)-1-isopropyl-7-methyl-4,5,6,7-tetrahydro-1H-pyrazolo[4,3-c]pyridine-3-carboxamide]: the EC50 in test [1] came out at 4 nM. This compound also returned an IC50 in test [2] of 19 nM.

With `COC[C@H]1CN(C(=O)Nc2ccc(CNC(=O)c3nn(C(C)C)c4c3CN(c3ccc(C(=O)N(C)C)cc3)C[C@@H]4C)cc2)CCN1` [Example 577, (S)-5-(4-(dimethylcarbamoyl)phenyl)-1-isopropyl-N-(4-((R)-3-(methoxymethyl)piperazine-1-carboxamido)benzyl)-7-methyl-4,5,6,7-tetrahydro-1H-pyrazolo[4,3-c]pyridine-3-carboxamide], the EC50 in test [1] was determined as 1 nM. In test [2], this compound gave an IC50 of 4 nM.

In the case of `COC[C@@H]1CN(C(=O)Nc2ccc(CNC(=O)c3nn(C(C)C)c4c3CN(c3ccc(C(=O)N(C)C)cc3)C[C@@H]4C)cc2)CCN1` [Example 578, (S)-5-(4-(dimethylcarbamoyl)phenyl)-1-isopropyl-N-(4-((S)-3-(methoxymethyl)piperazine-1-carboxamido)benzyl)-7-methyl-4,5,6,7-tetrahydro-1H-pyrazolo[4,3-c]pyridine-3-carboxamide], the EC50 in test [1] was 0.5 nM. This compound also gave an IC50 in test [2] of 5 nM.

As for `CC(C)n1nc(C(=O)NCc2ccc(NC(=O)NCC(F)F)cc2)c2c1[C@@H](C)CN(c1ccc(C(=O)N(C)C)cn1)C2` [Example 579, (S)-N-(4-(3-(2,2-difluoroethyl)ureido)benzyl)-5-(5-(dimethylcarbamoyl)pyridin-2-yl)-1-isopropyl-7-methyl-4,5,6,7-tetrahydro-1H-pyrazolo[4,3-c]pyridine-3-carboxamide], in test [1], the EC50 stood at 0.4 nM. In test [2], this compound gave an IC50 of 8 nM.

With `CC(C)n1nc(C(=O)NCc2ccc(NC(=O)N3CCN(C)CC3)c(F)c2)c2c1[C@@H](C)CN(c1ccc(C(=O)N(C)C)cc1)C2` [Example 580, (S)-5-(4-(dimethylcarbamoyl)phenyl)-N-(3-fluoro-4-(4-methylpiperazine-1-carboxamido)benzyl)-1-isopropyl-7-methyl-4,5,6,7-tetrahydro-1H-pyrazolo[4,3-c]pyridine-3-carboxamide], in test [1], the EC50 worked out at 1 nM. The same compound displayed an IC50 in test [2] of 11 nM.

For `CNC1(C)CN(C(=O)Nc2ccc(CNC(=O)c3nn(C(C)C)c4c3CN(c3ccc(C(=O)N(C)C)cc3)C[C@@H]4C)cc2)C1` [Example 581, (S)-5-(4-(dimethylcarbamoyl)phenyl)-1-isopropyl-7-methyl-N-(4-(3-methyl-3-(methylamino)azetidine-1-carboxamido)benzyl)-4,5,6,7-tetrahydro-1H-pyrazolo[4,3-c]pyridine-3-carboxamide], in test [1], the EC50 was 3 nM. This compound showed a concentration for half-maximal inhibition (IC50) in test [2] of 24 nM.

With `CC(C)n1nc(C(=O)NCc2ccc(NC(=O)N3CCCC3)cc2)c2c1[C@@H](C)CN(c1ccc(C(=O)N(C)C)cn1)C2` [Example 583, (S)-5-(5-(dimethylcarbamoyl)pyridin-2-yl)-1-isopropyl-7-methyl-N-(4-(pyrrolidine-1-carboxamido)benzyl)-4,5,6,7-tetrahydro-1H-pyrazolo[4,3-c]pyridine-3-carboxamide], the EC50 in test [1] worked out at 1 nM. This compound had an IC50 in test [2] of 17 nM.

`CC(C)n1nc(C(=O)NCc2ccc(NC(=O)N3CC(F)C3)cc2)c2c1[C@@H](C)CN(c1ccc(C(=O)N(C)C)cn1)C2` [Example 584, (S)-5-(5-(dimethylcarbamoyl)pyridin-2-yl)-N-(4-(3-fluoroazetidine-1-carboxamido)benzyl)-1-isopropyl-7-methyl-4,5,6,7-tetrahydro-1H-pyrazolo[4,3-c]pyridine-3-carboxamide]: in test [1], the EC50 amounted to 1 nM. Moreover, the IC50 in test [2] was 12 nM.

As to `CC(C)n1nc(C(=O)NCc2ccc(NC(=O)C3CCN(C)CC3)cc2)c2c1[C@@H](C)CN(c1ccc(C(=O)N(C)C)cc1)C2` [Example 585, (S)-5-(4-(dimethylcarbamoyl)phenyl)-1-isopropyl-7-methyl-N-(4-(1-methylpiperidine-4-carboxamido)benzyl)-4,5,6,7-tetrahydro-1H-pyrazolo[4,3-c]pyridine-3-carboxamide], the EC50 in test [1] is 6 nM. Further, the IC50 in test [2] was 37 nM.

Turning to `CC(C)n1nc(C(=O)NCc2ccc(NC(=O)C3(F)CCN(C)CC3)cc2)c2c1[C@@H](C)CN(c1ccc(C(=O)N(C)C)cc1)C2` [Example 586, (S)-5-(4-(dimethylcarbamoyl)phenyl)-N-(4-(4-fluoro-1-methylpiperidine-4-carboxamido)benzyl)-1-isopropyl-7-methyl-4,5,6,7-tetrahydro-1H-pyrazolo[4,3-c]pyridine-3-carboxamide], the EC50 in test [1] came to 6 nM. The IC50 in test [2] was found to be 58 nM.

A word on the EC50: it is the concentration at which the effect is half-maximal. A word on the IC50: it is the concentration that gives 50% inhibition.
